In ChEMBL document CHEMBL2390846, “Small-molecule pyrimidine inhibitors of the cdc2-like (Clk) and dual specificity tyrosine phosphorylation-regulated (Dyrk) kinases: development of chemical probe ML315” (Bioorg Med Chem Lett, 2013):
Values after ≈ are worked out from the molar mass of the structure shown.

Tests used:
[1] = biological target: T1, Dual specificity protein kinase CLK4 (Homo sapiens, UniProt Q9HAZ1)
[2] = biological target: Dual specificity tyrosine-phosphorylation-regulated kinase 1B (Homo sapiens, UniProt Q9Y463)
Chain of Dual specificity tyrosine-phosphorylation-regulated kinase 1B (Q9Y463 whole entry): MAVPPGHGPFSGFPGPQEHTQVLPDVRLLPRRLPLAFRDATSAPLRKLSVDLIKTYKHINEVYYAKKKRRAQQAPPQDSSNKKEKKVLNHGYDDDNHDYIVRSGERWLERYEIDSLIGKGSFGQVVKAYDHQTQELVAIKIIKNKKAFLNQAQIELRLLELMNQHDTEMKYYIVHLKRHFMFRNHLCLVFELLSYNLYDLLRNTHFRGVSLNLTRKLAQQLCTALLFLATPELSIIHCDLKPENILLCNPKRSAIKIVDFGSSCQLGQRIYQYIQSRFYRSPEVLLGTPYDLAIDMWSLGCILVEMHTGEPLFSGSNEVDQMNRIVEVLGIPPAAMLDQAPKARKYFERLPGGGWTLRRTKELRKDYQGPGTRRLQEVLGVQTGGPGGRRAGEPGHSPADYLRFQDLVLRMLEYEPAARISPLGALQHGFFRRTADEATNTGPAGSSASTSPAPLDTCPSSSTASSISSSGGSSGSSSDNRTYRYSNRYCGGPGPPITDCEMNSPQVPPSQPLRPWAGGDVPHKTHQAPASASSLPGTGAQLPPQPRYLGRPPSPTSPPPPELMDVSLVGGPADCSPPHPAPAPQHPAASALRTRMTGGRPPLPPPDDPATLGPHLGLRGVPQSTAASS

[3] = biological target: Dual specificity protein kinase CLK3 (Homo sapiens, UniProt P49761)
Chain of Dual specificity protein kinase CLK3 (P49761 whole entry): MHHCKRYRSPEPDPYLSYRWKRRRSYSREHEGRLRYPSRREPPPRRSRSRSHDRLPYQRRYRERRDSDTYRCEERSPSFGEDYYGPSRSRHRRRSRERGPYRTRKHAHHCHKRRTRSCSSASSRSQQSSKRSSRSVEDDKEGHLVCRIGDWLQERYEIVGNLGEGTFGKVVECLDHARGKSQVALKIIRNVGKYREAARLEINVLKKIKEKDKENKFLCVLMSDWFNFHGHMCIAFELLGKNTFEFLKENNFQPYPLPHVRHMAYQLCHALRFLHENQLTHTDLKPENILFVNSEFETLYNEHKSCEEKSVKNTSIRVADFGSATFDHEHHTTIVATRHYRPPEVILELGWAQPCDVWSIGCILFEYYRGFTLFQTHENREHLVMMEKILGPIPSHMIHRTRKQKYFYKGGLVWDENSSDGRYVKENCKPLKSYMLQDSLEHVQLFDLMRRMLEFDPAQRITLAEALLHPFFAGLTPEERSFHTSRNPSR

[4] = biological target: Dual specificity protein kinase CLK1 (Homo sapiens, UniProt P49759)
Chain of Dual specificity protein kinase CLK1 (P49759 whole entry): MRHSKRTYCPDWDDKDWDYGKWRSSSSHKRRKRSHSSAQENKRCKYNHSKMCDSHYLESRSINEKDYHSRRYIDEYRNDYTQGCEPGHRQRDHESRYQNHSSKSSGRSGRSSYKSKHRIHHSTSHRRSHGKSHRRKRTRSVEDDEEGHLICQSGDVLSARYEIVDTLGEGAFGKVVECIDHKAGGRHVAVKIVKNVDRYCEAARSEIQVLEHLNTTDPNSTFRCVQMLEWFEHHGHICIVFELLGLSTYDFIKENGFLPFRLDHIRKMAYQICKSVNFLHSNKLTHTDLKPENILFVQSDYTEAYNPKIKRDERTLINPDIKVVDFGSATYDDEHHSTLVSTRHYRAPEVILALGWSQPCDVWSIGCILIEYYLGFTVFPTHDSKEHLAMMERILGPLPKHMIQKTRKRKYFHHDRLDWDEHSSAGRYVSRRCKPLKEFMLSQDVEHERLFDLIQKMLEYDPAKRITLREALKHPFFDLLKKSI

[5] = biological target: L-type calcium channel, benzothiazepine binding site (Rattus norvegicus, UniProt P22002+P27732+Q02485); assay: Inhibition of rat L-type calcium channel benzothiazepine binding site at 10 uM relative to control
hERG (KCNH2) = hERG (KCNH2) (Homo sapiens, UniProt Q12809); assay: Inhibition of human ERG at 10 uM relative to control
Chain of hERG (KCNH2) (Q12809 whole entry): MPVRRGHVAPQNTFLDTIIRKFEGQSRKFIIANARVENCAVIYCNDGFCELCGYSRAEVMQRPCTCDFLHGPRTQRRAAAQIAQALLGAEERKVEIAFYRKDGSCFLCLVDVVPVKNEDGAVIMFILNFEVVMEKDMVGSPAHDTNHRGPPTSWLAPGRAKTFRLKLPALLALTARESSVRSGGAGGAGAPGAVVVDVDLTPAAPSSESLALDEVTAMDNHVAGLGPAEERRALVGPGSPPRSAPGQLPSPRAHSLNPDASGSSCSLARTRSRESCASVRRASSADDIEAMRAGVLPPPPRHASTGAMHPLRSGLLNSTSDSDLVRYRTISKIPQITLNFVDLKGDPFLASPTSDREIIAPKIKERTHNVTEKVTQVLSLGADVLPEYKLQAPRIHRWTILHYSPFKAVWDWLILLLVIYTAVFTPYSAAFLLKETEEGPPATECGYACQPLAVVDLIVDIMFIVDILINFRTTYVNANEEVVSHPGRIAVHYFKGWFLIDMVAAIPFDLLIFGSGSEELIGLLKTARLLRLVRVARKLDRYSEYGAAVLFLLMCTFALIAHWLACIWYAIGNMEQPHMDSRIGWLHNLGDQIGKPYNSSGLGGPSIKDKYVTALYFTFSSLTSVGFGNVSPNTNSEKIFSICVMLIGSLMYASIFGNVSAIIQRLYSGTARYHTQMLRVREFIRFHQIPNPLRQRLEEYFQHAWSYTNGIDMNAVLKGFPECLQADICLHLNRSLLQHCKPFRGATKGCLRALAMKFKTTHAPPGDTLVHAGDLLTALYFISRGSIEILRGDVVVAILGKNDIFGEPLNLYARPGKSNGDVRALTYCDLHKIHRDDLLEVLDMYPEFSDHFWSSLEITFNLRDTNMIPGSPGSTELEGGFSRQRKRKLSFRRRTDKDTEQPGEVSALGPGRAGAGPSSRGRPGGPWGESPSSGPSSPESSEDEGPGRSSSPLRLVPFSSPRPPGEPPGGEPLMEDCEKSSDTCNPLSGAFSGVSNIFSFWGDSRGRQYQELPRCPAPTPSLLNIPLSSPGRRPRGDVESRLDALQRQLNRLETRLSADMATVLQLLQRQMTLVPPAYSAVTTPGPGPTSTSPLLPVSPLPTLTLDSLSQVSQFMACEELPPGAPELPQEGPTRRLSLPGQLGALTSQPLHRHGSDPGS

[6] = Permeability of the compound in aqueous buffer at donor compartment pH 6.2 and acceptor compartment pH 7.4 by PAMPA; assay type: ADME
[7] = Aqueous solubility of the compound in PBS at pH 7.4; assay type: physicochemical
[8] = Plasma protein binding in human at 10 uM; assay type: ADME, cell-free; conditions: read-out: PPB (converted)
[9] = biological target: T2, Dual specificity tyrosine-phosphorylation-regulated kinase 1A (Homo sapiens, UniProt Q13627)
[10] = biological target: T1, Dual specificity protein kinase CLK4; assay: Inhibition of CLK4 (unknown origin) by bioluminescence assay; conditions: read-out: IC50
[11] = Metabolic stability in mouse liver microsomes assessed as compound remaining at 1 hr; assay type: ADME, Microsome; conditions: read-out: Stability
[12] = Hepatotoxicity against human Fa2N-4 cells; assay type: toxicity, cell-based; conditions: read-out: LC50 (the source's name)
[13] = Plasma protein binding in mouse at 10 uM; assay type: ADME, cell-free; conditions: read-out: PPB (converted)
[14] = biological target: T2, Dual specificity tyrosine-phosphorylation-regulated kinase 1A; assay: Inhibition of DYRK1A (unknown origin) by bioluminescence assay; conditions: read-out: IC50
[15] = Permeability of the compound in aqueous buffer at donor compartment pH 7.4 and acceptor compartment pH 7.4 by PAMPA; assay type: ADME
[16] = Metabolic stability in mouse plasma assessed as compound remaining at 3 hrs; assay type: ADME, cell-free; conditions: read-out: Stability
[17] = Permeability of the compound in aqueous buffer at donor compartment pH 5.0 and acceptor compartment pH 7.4 by PAMPA; assay type: ADME
[18] = Plasma protein binding in mouse at 1 uM; assay type: ADME, cell-free; conditions: read-out: PPB (converted)
[19] = Metabolic stability in human liver microsomes assessed as compound remaining at 1 hr; assay type: ADME, Microsome; conditions: read-out: Stability
[20] = Metabolic stability in human plasma assessed as compound remaining at 3 hrs; assay type: ADME, cell-free; conditions: read-out: Stability
[21] = Solubility of the compound in assay media at pH 7.5; assay type: physicochemical
[22] = biological target: Dual specificity protein kinase CLK2 (Homo sapiens, UniProt P49760)
Chain of Dual specificity protein kinase CLK2 (P49760 whole entry): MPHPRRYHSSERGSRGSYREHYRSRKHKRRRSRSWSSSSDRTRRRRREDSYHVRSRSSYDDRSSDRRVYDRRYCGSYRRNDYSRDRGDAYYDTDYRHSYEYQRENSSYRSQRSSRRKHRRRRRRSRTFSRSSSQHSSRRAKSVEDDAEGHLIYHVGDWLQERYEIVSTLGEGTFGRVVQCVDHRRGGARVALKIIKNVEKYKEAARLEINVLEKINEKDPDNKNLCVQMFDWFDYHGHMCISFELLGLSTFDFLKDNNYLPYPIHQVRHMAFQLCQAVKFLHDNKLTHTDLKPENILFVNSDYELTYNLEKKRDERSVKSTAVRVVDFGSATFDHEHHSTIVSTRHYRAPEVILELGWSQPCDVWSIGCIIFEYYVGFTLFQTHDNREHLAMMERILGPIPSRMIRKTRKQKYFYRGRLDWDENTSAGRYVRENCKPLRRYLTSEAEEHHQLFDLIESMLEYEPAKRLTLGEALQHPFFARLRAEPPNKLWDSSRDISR

[23] = Plasma protein binding in human at 1 uM; assay type: ADME, cell-free; conditions: read-out: PPB (converted)

T1 sequence (Q9HAZ1 whole entry): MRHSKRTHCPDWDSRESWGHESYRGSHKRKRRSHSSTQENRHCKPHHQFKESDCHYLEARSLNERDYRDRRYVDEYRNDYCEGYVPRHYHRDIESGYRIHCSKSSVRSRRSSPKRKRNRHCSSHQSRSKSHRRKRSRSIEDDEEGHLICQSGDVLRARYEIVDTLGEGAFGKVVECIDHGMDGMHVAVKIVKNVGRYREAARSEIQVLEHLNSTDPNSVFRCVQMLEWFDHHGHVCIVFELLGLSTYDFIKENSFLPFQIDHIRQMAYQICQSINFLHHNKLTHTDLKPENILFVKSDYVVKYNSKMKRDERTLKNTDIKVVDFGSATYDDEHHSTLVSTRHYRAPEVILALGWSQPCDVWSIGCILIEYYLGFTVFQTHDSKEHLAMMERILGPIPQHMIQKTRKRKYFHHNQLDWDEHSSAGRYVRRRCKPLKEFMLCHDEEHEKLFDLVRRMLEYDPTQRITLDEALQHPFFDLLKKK

Row | Structure (SMILES) | IC50 [1] [nM] | IC50 [2] [nM] | IC50 [3] [nM] | IC50 [4] [nM] | IC50 [9] [nM] | IC50 [10] [nM] | IC50 [14] [nM] | IC50 [22] [nM] | also measured
1 | Clc1cc(Cl)cc(CNc2ncncc2-c2ccc3c(c2)OCO3)c1 | 68 | 1160 | > 10000 | 68 | 282 | 130 | 2600 | 231 | inhibition at 10 µM [5]: 26%; inhibition at 10 µM (hERG (KCNH2)): 44%; permeability [6]: 1360 ×10⁻⁶ cm/s; solubility [7]: 1.15 µM (≈ 0.43 µg/mL); fraction unbound at 10 µM [8]: 0.0022; remaining at 1 h [11]: 0.54%; CC50 [12]: > 50000 nM; fraction unbound at 10 µM [13]: 0.0053; permeability [15]: 1150 ×10⁻⁶ cm/s; remaining at 3 h [16]: 86.7%; permeability [17]: 2220 ×10⁻⁶ cm/s; fraction unbound at 1 µM [18]: 0.0051; remaining at 1 h [19]: 1.3%; remaining at 3 h [20]: 85.5%; solubility [21]: 1.71 µM (≈ 0.64 µg/mL); fraction unbound at 1 µM [23]: 0.0065
2 | c1cncc(CNc2nccc(-c3ccc4c(c3)OCO4)n2)c1 | 16 | 12 | 1470 | 11 | 7 | 20 | 40 | 60 | –
